Test results: US9012431B2, “Boron-containing small molecules as anti-inflammatory agents” (Anacor Pharmaceuticals, Inc., priority 2008, dated 2015)

Assays:
IL-5 = assay: Cytokine assay, IL-5 release from PBMC; format: cell-based; conditions: human PBMC, 20 ug/mL PHA; for IC50: supernatant at 48 hours
How it was run: (§1)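 Human PBMC (frozen, thawed), RPMI 1640 + 10% FBS; compound at 10, 1, 0.1, 0.01 μM from 10 mM DMSO stock, n=3; cytokine release read.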

BALB/c male mice = assay: Oxazolone Induced Mouse Ear Edema Model; format: in vivo; conditions: for inhibition in vivo at 1 mg: 1 mg/ear × 2 topical; for inhibition in vivo at 0.2 mg: 0.2 mg/ear × 2 topical
Procedure: 2. In Vivo Anti-Inflammation Activity in Oxazolone Induced Mouse Ear Edema Model
Groups of 5 BALB/c male mice weighing 23±2 g were used. The preshaved abdomens of test animals were sensitized by application of 100 μl, of 1.5% oxazolone solution dissolved in acetone. Seven days after the initial sensitization, test substances, as well as vehicle (acetone:ethanol/1:1, 20 μL/ear) were each administered topically to the anterior and posterior surfaces of the right ear 30 minutes before, and 15 minutes after, challenge by a second application of oxazolone (1% in acetone, […]) via topical route. As a positive control, indomethacin (0.3 mg/ear×2) was administered topically using the same treatment regime as for the test compounds. Twenty-four hours after the second application of oxazolone, the ear thickness of each mouse was measured with a Dyer model micrometer gauge. A 30 percent or more inhibition in ear swelling relative to the vehicle control was considered significant and indicated possible anti-inflammatory activity.

IL-10 = assay: Cytokine assay, IL-10 release from PBMC; format: cell-based; conditions: human PBMC, 20 ug/mL PHA; for IC50: supernatant at 48 hours
How it was run: as §1

IL-2 = assay: Cytokine assay, IL-2 release from PBMC; format: cell-based; conditions: human PBMC, 20 ug/mL PHA; for IC50: supernatant at 24 hours
How it was run: as §1

TNF-α = assay: Cytokine assay, TNF-α release from PBMC; format: cell-based; conditions: 1 μg/mL LPS; for IC50: Homo sapiens, PBMC, 24 h, supernatant at 24 hours
How it was run: as §1

[1] = system: T1, PDE4 partially purified from human U-937 myeloid leukemia cells; assay: PDE4 Assay (enzyme from U-937 cells, [3H]cAMP); format: biochemical; conditions: PDE4 from U-937 cells, Tris buffer pH 7.5, 20 minutes at 25° C.
T1 construct: PDE4 partially purified from human U-937 myeloid leukemia cells was used

IFN-γ = assay: Cytokine assay, IFN-γ release from PBMC; format: cell-based; conditions: human PBMC, 20 ug/mL PHA, supernatant at 24 hours
How it was run: as §1

[2] = system: CD-1 (Crl.) derived male mice; assay: Phorbol Ester Induced Mouse Ear Edema Model; format: in vivo; conditions: topical, 6 h; for inhibition in vivo at 0.05 mg: 0.05 mg/ear × 2 topical; for inhibition in vivo at 0.1 mg: 0.1 mg/ear × 2 topical; for inhibition in vivo at 0.2 mg: 0.2 mg/ear × 2 topical; for inhibition in vivo at 1 mg: 1 mg/ear × 2 topical; for inhibition in vivo at 3 mg: 3 mg/ear × 2 topical
Procedure: 1. In Vivo Anti-Inflammation Activity in Phorbol Ester Induced Mouse Ear Edema Model
[…] Dexamethasone (1 mg/ear×2) used as the positive control was administered topically to test animals using the same application schedule. Ear swelling was then measured by a Dyer model micrometer gauge at 6 hours after PMA application as an index of inflammation. Percent inhibition was calculated according to the formula: [(Ic−It)/Ic]×100%, where Ic and It refer to increase of ear thickness (mm) in control and treated mice, respectively.

[3] = Acetone:Ethanol/1:1, ear thickness 24 hours after second oxazolone application
[4] = 95% Ethanol, ear swelling 6 hours after PMA
[5] = Acetone:Ethanol/1:1, ear swelling 6 hours after PMA
[6] = […] × 2 topical, 95% Ethanol, ear swelling 6 hours after PMA

Structure (SMILES)	IC50 (IL-5) [nM]	inhibition in vivo at 1 mg (BALB/c male mice; [3]) [%]	IC50 (IL-10) [nM]	IC50 (IL-2) [nM]	IC50 (TNF-α) [nM]	IC50 [1] [nM]	IC50 (IFN-γ) [nM]	inhibition in vivo at 0.2 mg [2, 5] [%]	inhibition in vivo at 1 mg [2, 5] [%]	further results
COc1nc(Oc2ccc3c(c2)COB3O)ccc1C#N [D46, 6-(1-hydroxy-1,3-dihydrobenzo[c][1,2]oxaborol-5-yloxy)-2-methoxynicotinonitrile]	< 1000	< 20	< 1000	< 1000	< 1000	< 1000	< 1000	< 30	60 to 90	inhibition in vivo at 0.05 mg [2, 4]: < 30%; inhibition in vivo at 0.1 mg [2, 5]: < 30%; inhibition in vivo at 0.17 mg ([2]; 0.17 mg/ear × 2 topical, 95% Ethanol, ear swelling 6 hours after PMA): < 30%; inhibition in vivo at 0.5 mg ([2]; 0.5 mg/ear × 2 topical, 95% Ethanol, ear swelling 6 hours after PMA): < 30%; inhibition in vivo at 3 mg [2, 4]: 60 to 90%
CCOC(=O)c1cnc(Oc2ccc3c(c2)COB3O)c(Cl)c1 [D48, Ethyl 5-chloro-6-(1-hydroxy-1,3-dihydrobenzo[c][1,2]oxaborol-5-yloxy)nicotinate]	–	20 to 30	–	< 1000	< 1000	< 1000	< 1000	< 30	< 30	inhibition in vivo at 0.2 mg (BALB/c male mice; [3]): < 20%
O=C(O)c1ccc(Oc2ccc3c(c2)COB3O)nc1 [D61, 6-(1-Hydroxy-1,3-dihydrobenzo[c][1,2]oxaborol-5-yloxy)nicotinic acid]	–	< 20	–	–	–	–	–	< 30	30 to 60	inhibition at 10 µM (IL-5; 48 hours, 10 μM): 30 to 60%; inhibition in vivo at 0.1 mg (BALB/c male mice; 0.1 mg/ear × 2 topical, Acetone:Ethanol/1:1, ear thickness 24 hours after second oxazolone application): < 20%; inhibition in vivo at 0.2 mg (BALB/c male mice; [3]): < 20%; inhibition at 10 µM (IL-10; 48 hours, 10 μM): < 30%; inhibition at 10 µM (IL-2; 24 hours, 10 μM): < 30%; inhibition at 10 µM (TNF-α; human PBMC, 24 hours, 10 μM): < 30%; inhibition in vivo at 0.1 mg [2, 5]: < 30%
CC(C)OC(=O)c1ccc(Oc2ccc3c(c2)COB3O)nc1 [D67, Isopropyl 6-(1-hydroxy-1,3-dihydrobenzo[c][1,2]oxaborol-5-yloxy)nicotinate]	< 1000	< 20	< 1000	< 1000	< 1000	< 1000	< 1000	–	60 to 90	–
CCCCOC(=O)c1ccc(Oc2ccc3c(c2)COB3O)nc1 [D68, n-Butyl 6-(1-hydroxy-1,3-dihydrobenzo[c][1,2]oxaborol-5-yloxy)nicotinate]	1000 to 4000	< 20	1000 to 4000	< 1000	< 1000	< 1000	4000 to 10000	–	30 to 60	–
N#Cc1ccc(Oc2ccc3c(c2)COB3O)nc1N1CCCC1 [D97, 6-(1-Hydroxy-1,3-dihydro-benzo[c][1,2]oxaborol-5-yloxy)-2-pyrrolidin-1-yl-nicotinonitrile]	< 1000	–	< 1000	< 1000	< 1000	< 1000	< 1000	–	–	inhibition in vivo at 0.56 mg (BALB/c male mice; 0.56 mg/ear × 2 topical, 95% Ethanol, ear thickness 24 hours after second oxazolone application): < 20%; inhibition in vivo at 0.19 mg ([2]; 0.19 mg/ear × 2 topical, 95% Ethanol, ear swelling 6 hours after PMA): < 30%; inhibition in vivo at 0.056 mg [2, 6]: < 30%; inhibition in vivo at 0.56 mg [2, 6]: 30 to 60%
N#Cc1ccc(Oc2ccc3c(c2)COB3O)nc1OCCO [D99, 6-(1-Hydroxy-1,3-dihydro-benzo[c][1,2]oxaborol-5-yloxy)-2-(2-hydroxy-ethoxy)-nicotinonitrile]	< 1000	< 20	< 1000	< 1000	< 1000	< 1000	< 1000	–	–	inhibition in vivo at 0.02 mg (BALB/c male mice; 0.02 mg/ear × 2 topical, 95% Ethanol, ear thickness 24 hours after second oxazolone application): < 20%; inhibition in vivo at 0.02 mg ([2]; 0.02 mg/ear × 2 topical, 95% Ethanol, ear swelling 6 hours after PMA): < 30%; inhibition in vivo at 0.067 mg ([2]; 0.067 mg/ear × 2 topical, 95% Ethanol, ear swelling 6 hours after PMA): < 30%; inhibition in vivo at 0.2 mg [2, 4]: < 30%; inhibition in vivo at 3 mg [2, 4]: 60 to 90%
COCCNc1nc(Oc2ccc3c(c2)COB3O)ccc1C#N [D111, 6-(1-Hydroxy-1,3-dihydro-benzo[c][1,2]oxaborol-5-yloxy)-2-(2-methoxy-ethylamino)-nicotinonitrile]	–	–	–	–	< 1000	–	–	–	–	inhibition in vivo at 0.15 mg (BALB/c male mice; 0.15 mg/ear × 2 topical, 95% Ethanol, ear thickness 24 hours after second oxazolone application): < 20%; inhibition in vivo at 0.015 mg ([2]; 0.015 mg/ear × 2 topical, 95% Ethanol, ear swelling 6 hours after PMA): < 30%; inhibition in vivo at 0.05 mg [2, 4]: < 30%; inhibition in vivo at 0.15 mg ([2]; 0.15 mg/ear × 2 topical, 95% Ethanol, ear swelling 6 hours after PMA): < 30%; inhibition in vivo at 1 mg [2, 4]: < 30%
